Experimental findings from patent US7501410B2, “Methods of inhibiting BTK and SYK protein kinases” (Roche Palo Alto LLC, priority 2006, dated 2009) are described below.

Bounds are passed on as bounds.

Assay [1] has as its target T1, Bruton's Tyrosine Kinase (Btk) (Homo sapiens, UniProt Q06187).
T1 construct: 5-10 nM Btk enzyme (His-tagged, full-length); His tag
Kind of assay: Determination of IC50 of Bruton's Tyrosine Kinase (Btk) inhibition, 33P filtration assay. It counts as biochemical. To be noted: His-tagged full-length Btk, 100 μM ATP. The source says: Determination of IC50 of Bruton's Tyrosine Kinase (Btk) Inhibition
The assay is a capture of radioactive ^33P phosphorylated product through filtration. The interactions of Btk, biotinylated SH2 peptide substrate (Src homology), and ATP lead to phosphorylation of the peptide substrate. Biotinylated product is bound streptavidin sepharose beads. All bound, radiolabeled products are detected by scintillation counter.
Plates assayed are 96-well polypropylene (Greiner) and 96-well 1.2 μm hydrophilic PVDF filter plates (Millipore). Concentrations reported here are final assay concentrations: 10-100 μM compounds in DMSO (Burdick and Jackson), 5-10 nM Btk enzyme (His-tagged, full-length), 30 μM peptide substrate (Biotin-Aca-[…]-NH2), 100 μM ATP (Sigma), 8 mM imidazole (Sigma, pH 7.2), 8 mM glycerol-2-phosphate (Sigma), 200 μM EGTA (Roche Diagnostics), 1 mM MnCl2 (Sigma), 20 mM MgCl2 (Sigma), 0.1 mg/ml BSA (Sigma), 2 mM DTT (Sigma), 1 μCi ^33P ATP (Amersham), 20% streptavidin sepharose beads (Amersham), 50 mM EDTA (Gibco), 2 M NaCl (Gibco), 2 M NaCl w/1% phosphoric acid (Gibco), microscint-20 (Perkin Elmer).
IC50 determinations are calculated from 10 data points per compound utilizing data produced from a standard 96-well plate assay template. One control compound and seven unknown inhibitors were tested on each plate and each plate was run twice. Typically, compounds were diluted in half-log starting at 100 μM and ending at 3 nM. The control compound was staurosporine. Background was counted in the absence of peptide substrate. Total activity was determined in the presence of peptide substrate. The following protocol was used to determine BTK inhibition.
1) Sample preparation: The test compounds were diluted at half-log increments in assay buffer (imidazole, glycerol-2-phosphate, EGTA, MnCl2, MgCl2, BSA).
2) Bead preparation • a.) rinse beads by centrifuging at 500 g • b.) reconstitute the beads with PBS and EDTA to produce a 20% bead slurry
3) Pre-incubate reaction mix without substrate (assay buffer, DTT, ATP, ^33P ATP) and mix with substrate (assay buffer, DTT, ATP, ^33P ATP, peptide substrate) 30° C. for 15 min.
4) To start assay, pre-incubate 10 μL BTK in enzyme buffer (imidazole, glycerol-2-phosphate, BSA) and 10 μL of test compounds for 10 min at RT.
5) Add 30 μL reaction mixture without or with substrate to BTK and compounds.
6) Incubate 50 μL total assay mix for 30 min at 30° C.
7) Transfer 40 μL of assay to 150 μL bead slurry in filter plate to stop reaction.
8) Wash filter plate after 30 min, with following steps • a. 3 ×250 μL NaCl • b. 3×250 μL NaCl containing 1% phosphoric acid • c. 1×250 μL H2O
9) Dry plate for 1 h at 65° C. or overnight at RT
10) Add 50 μL microscint-20 and count ^33P cpm on scintillation counter.
Calculate percent activity from raw data in cpm percent activity=(sample−bkg)/(total activity−bkg)×100

Assay [2] has as its target T2, Spleen Tyrosine Kinase (SYK) aa 360-635 (Homo sapiens, UniProt P43405).
T2 construct: truncated construct of Spleen Tyrosine Kinase aa 360-635; made in house
Kind of assay: Determination of IC50 of Spleen Tyrosine Kinase (SYK) inhibition, 33P kinase assay. It counts as biochemical. The conditions noted are these: recombinant human SYK360-635, 20 μM ATP; read-out: IC50 (μM) SYK Assay. The procedure:
Determination of IC50 of Spleen Tyrosine Kinase (SYK) Inhibition
The SYK kinase assay is a standard kinase assay adapted to a 96 well plate format. This assay is performed in 96-well format for IC50 determination with 8 samples which represented 10 half log dilutions and a 40 μL reaction volume. The assay measures the incorporation of radiolabeled ^33P γATP into an N-terminally biotinylated peptide substrate, derived from naturally occurring phosphoacceptor consensus sequence (Biotin-11aa DY*E). Phosphorylated products were detected upon termination of reactions with EDTA and the addition of Streptavidin coated beads. • Assay plates: 96-well MultiScreen 0.65 um filter plates (Millipore Cat. No.: MADVNOB10) • Streptavidin coated beads: Streptavidin Sepharose TM, suspension 5.0 mL, in 50 mM EDTA/PBS diluted (1:100), (Amersham, Cat. No.: 17-5113-01) • Compounds: 10 mM in 100% dimethylsulfoxide (DMSO), final conc.: compound 0.003-100 uM in 10% DMSO • Enzyme: SYK RPA purified, truncated construct of Spleen Tyrosine Kinase aa 360-635, stock solution 1 mg/mL, MW: 31.2 KDa, final conc.:0.0005 μM. • Peptide 1: biotinylated peptide is derived from a naturally occurring phosphor-acceptor consensus sequence (Biotin-[…]), special order from QCB, stock solution 20 mM, final conc.: 5.0 μM. • ATP: Adenosine-5′-triphosphate 20 mM, (ROCHE Cat. No.:93202720), final concentration: 20 μM • Buffer: HEPES: 2-Hydroxyethyl piperazine-2-ethanesulfonic acid (Sigma, Cat. No.: H-3375) final concentration: 50 mM HEPES pH7.5 • BSA: Bovine Serum Albumin Fraction V, fatty acid free (Roche Diagnostics GmbH, Cat. No. 9100221) diluted to a final concentration of 0.1% • EDTA: EDTA stock solution 500 mM, (GIBCO, Cat. No.: 15575-038) final concentration: 0.1 mM • DTT: 1,4-Dithiothreitol (Roche Diagnostics GmbH, Cat. No.: 197777), final conc.: 1 mM • MgCl2×6H2O: MERCK, Cat. No.: 105833.1000, final concentration: 10 mM • Assay Dilution Buffer (ADB): 50 mM HEPES, 0.1 mM EGTA, 0.1 mM Na Vanadate, 0.1 mM β-glycerophosphate, 10 mM MgCl2, 1 mM DTT, 0,1% BSA, pH 7.5 • Bead wash buffer: 10 g/L PBS (Phosphate buffered saline) with 2M NaCl+1% phosphoric acid Experimental Method:
In 40 μL volume, 26 μL of ADB diluted, purified recombinant human SYK360-635 [0.5 nM] was mixed with 4 μL of 10× concentrations of the test compounds, [usually 100 μM-0.003 μM] in [10%] DMSO and the mixture was incubated for 10 min at RT.
The kinase reaction was initiated by the addition of 10 μL 4× substrate cocktail containing the DYE peptide substrate [0 or 5 μM], ATP [20 μM] and […] [2 μCi/rxn]. After incubation at 30° C. for 15 min, the reaction was terminated by the transfer of 25 μL of the reaction sample to a 96 well 0.65 um Millipore MADVNOB membrane/plate containing 200 μL 5 mM EDTA and 20% Streptavidine coated beads in PBS.
The unbound radionucleotides were washed under vacuum with 3×250 μL 2M NaCl; 2×250 μL 2M NaCl+1% phosphoric acid; 1×250 μL H2O. After the last wash membrane/plates were transferred to an adaptor plate, heat dried for 15 min at 60° C., and 50 μL scintillation cocktail was added to each well and 4 h later the amount of radioactivity was counted in a top counter.
The IC50 was calculated using a non-linear curve fit with XLfit software (ID Business Solution Ltd., Guilford, Surrey, UK). […] Representative results are in Table 1.

T1 sequence (Q06187 whole entry): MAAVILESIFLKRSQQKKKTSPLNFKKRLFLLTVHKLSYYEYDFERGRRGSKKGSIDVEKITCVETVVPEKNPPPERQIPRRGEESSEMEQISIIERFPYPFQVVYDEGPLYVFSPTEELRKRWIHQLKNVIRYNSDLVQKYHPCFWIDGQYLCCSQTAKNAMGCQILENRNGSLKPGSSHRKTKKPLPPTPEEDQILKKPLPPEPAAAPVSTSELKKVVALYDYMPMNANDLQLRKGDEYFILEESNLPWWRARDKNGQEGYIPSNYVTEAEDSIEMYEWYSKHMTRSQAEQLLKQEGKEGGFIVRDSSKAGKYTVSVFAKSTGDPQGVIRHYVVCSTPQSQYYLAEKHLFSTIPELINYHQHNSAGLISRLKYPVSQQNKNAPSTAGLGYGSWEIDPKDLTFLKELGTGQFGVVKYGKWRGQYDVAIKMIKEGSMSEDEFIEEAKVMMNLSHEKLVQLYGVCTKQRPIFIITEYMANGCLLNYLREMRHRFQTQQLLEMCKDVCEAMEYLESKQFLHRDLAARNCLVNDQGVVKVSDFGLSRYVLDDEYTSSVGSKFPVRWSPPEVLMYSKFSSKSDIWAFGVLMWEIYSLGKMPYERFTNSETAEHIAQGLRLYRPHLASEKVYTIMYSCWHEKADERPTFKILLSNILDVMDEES

In general, IC50 refers to the concentration at which inhibition is half-maximal. The compound “4-(5-Methyl-2H-pyrazole-3-ylamino)-phenyl-2H-phthalazin-1-one [Example A-1]” showed an IC50 in assay [1] of 1.25 µM.

The compound `Cc1cc(Nc2nn(C)c(=O)c3ccccc23)n[nH]1` [Example A-3, 2-methyl-4-(5-methyl-1H-pyrazol-3-yl-amino)-2H-phthalazin-1-one] showed an IC50 in assay [1] of 70.5 µM.

For the compound `Cc1cc(Nc2nn(CC(C)C)c(=O)c3ccccc23)n[nH]1` [Example A-4, 2-isobutyl-4-(5-methyl-1H-pyrazol-3-ylamino)-2H-phthalazin-1-one], in assay [1], the midpoint of inhibition, the IC50, lay at 11.4 µM.

For `Cc1cc(Nc2nn(CC(F)(F)F)c(=O)c3ccccc23)n[nH]1` [Example A-5, 4-(5-methyl-1H-pyrazol-3-ylamino)-2-(2,2,2-trifluoro-ethyl)-2H-phthalazin-1-one], the 50% inhibitory concentration (IC50) in assay [1] came out at 8.22 µM; in assay [2], 7.68 µM.

`Cc1ccc(-n2nc(Nc3cc(C)[nH]n3)c3ccccc3c2=O)cc1` [Example A-6, 4-(5-methyl-1H-pyrazol-3-ylamino)-2-p-tolyl-2H-phthalazin-1-one] had a concentration for half-maximal inhibition (IC50) in assay [1] of 38.2 µM.

`Cc1cc(Nc2nn(-c3ccc(F)cc3)c(=O)c3ccccc23)n[nH]1` [Example A-7, 2-(4-fluoro-phenyl)-4-(5-methyl-1H-pyrazol-3-ylamino)-2H-phthalazin-1-one] came in with an IC50 in assay [1] of 6.3 µM.

In the case of `Cc1cc(Nc2nn(-c3ccc(C(C)(C)C)cc3)c(=O)c3ccccc23)n[nH]1` [Example A-8, 2-(4-tert-butyl-phenyl)-4-(5-methyl-1H-pyrazol-3-ylamino)-2H-phthalazin-1-one], the IC50 in assay [1] was found to be 30 µM; in assay [2] it was 0.552 µM.

`COc1ccc(-n2nc(Nc3cc(C)[nH]n3)c3ccccc3c2=O)cc1` [Example A-9, 2-(4-methoxy-phenyl)-4-(5-methyl-1H-pyrazol-3-ylamino)-2H-phthalazin-1-one] returned an IC50 in assay [1] of 5.87 µM.

As for `Cc1ccc(-n2nc(Nc3cc[nH]n3)c3ccccc3c2=O)cc1` [Example A-10, 4-(1H-pyrazol-3-yl-amino)-2-p-tolyl-2H-phthalazin-1-one], the IC50 in assay [1] came out at 16.6 µM.

Consider `COc1ccc(Cn2nc(Nc3cc(C)[nH]n3)c3ccccc3c2=O)cc1` [Example A-11, 2-(4-methoxy-benzyl)-4-(5-methyl-1H-pyrazol-3-ylamino)-2H-phthalazin-1-one], for which the IC50 in assay [1] came to 9.79 µM; in assay [2], 49.2 µM.

On to `Cc1cc(Nc2nn(Cc3cc(F)ccc3F)c(=O)c3ccccc23)n[nH]1` [Example A-13, 2-(2,5-difluoro-benzyl)-4-(5-methyl-1H-pyrazol-3-yl-amino)-2H-phthalazin-1-one], for which the values for the IC50 in assay [1] and in assay [2] were 38.6 µM and 22.9 µM, respectively.

For the compound `Cc1cc(Nc2nn(Cc3csc(C)n3)c(=O)c3ccccc23)n[nH]1` [Example A-16, 4-(5-methyl-1H-pyrazol-3-ylamino)-2-(2-methyl-thiazol-4-ylmethyl)-2H-phthalazin-1-one], the results for the IC50 in assay [1] and in assay [2] were 25.2 µM and 87.9 µM, respectively.

With `Cc1cc(Nc2nn(Cc3cccnc3)c(=O)c3ccccc23)[nH]n1` [Example A-18, 4-(5-methyl-2H-pyrazol-3-ylamino)-2-pyridin-3-ylmethyl-2H-phthalazin-1-one], the IC50 in assay [2] is 6.53 µM.

For `Cc1cc(Nc2nn(Cc3cc(F)cc(F)c3)c(=O)c3ccccc23)n[nH]1` [Example A-21, 2-(3,5-difluoro-benzyl)-4-(5-methyl-1H-pyrazol-3-yl-amino)-2H-phthalazin-1-one], the figures for the 50% inhibitory concentration (IC50) in assay [1] and in assay [2] were 14.6 µM and > 10 µM, respectively.

Regarding `Cc1cc(Nc2nn(Cc3ccccn3)c(=O)c3ccccc23)[nH]n1` [Example A-22, 4-(5-methyl-2H-pyrazol-3-ylamino)-2-pyridin-2-ylmethyl-2H-phthalazin-1-one], the 50% inhibitory concentration (IC50) in assay [2] came to 78.1 µM.

The compound `Cc1cc(Nc2nn(C(C)C)c(=O)c3ccccc23)n[nH]1` [Example A-23, 2-isopropyl-4-(5-methyl-1H-pyrazol-3-ylamino)-2H-phthalazin-1-one] showed an IC50 in assay [1] of 50.9 µM.

In the case of `Cc1cc(Nc2nn(Cc3cccc(C(=O)O)c3)c(=O)c3ccccc23)n[nH]1` [Example A-24, 3-[4-(5-methyl-1H-pyrazol-3-ylamino)-1-oxo-1H-phthalazin-2-ylmethyl]-benzoic acid], the IC50 was determined as 1.75 µM in assay [1] and 24.9 µM in assay [2].

On to `Cc1cc(Nc2nn(-c3ccc(C(F)(F)F)cc3)c(=O)c3ccccc23)[nH]n1` [Example A-25, 4-(5-methyl-1H-pyrazol-3-ylamino)-2-(4-trifluoromethyl-phenyl)-2H-phthalazin-1-one], for which, in assay [2], the IC50 amounted to 0.525 µM.

On to `Cc1cc(Nc2nn(Cc3ccccc3)c(=O)c3ccccc23)n[nH]1` [Example E-1, 2-Benzyl-4-(5-methyl-1H-pyrazol-3-ylamino)-2H-phthalazin-1-one], for which the IC50 in assay [1] is > 100 µM.

On to `COCc1ccc2c(Nc3cc(C)[nH]n3)nn(C(C)C)c(=O)c2c1` [Example K-1, 2-Isopropyl-7-methoxymethyl-4-(5-methyl-1H-pyrazol-3-ylamino)-2H-phthalazin-1-one], for which the IC50 in assay [2] was 1.25 µM.

Consider `Cc1cc(Nc2nn(C(C)C)c(=O)c3ccc(CO)cc23)n[nH]1` [Example M-10, 6-Hydroxymethyl-2-isopropyl-4-(5-methyl-1H-pyrazol-3-yl-amino)-2H-phthalazin-1-one], for which, in assay [2], the IC50 came out at 56.9 µM.
